In one experiment the target is T1, MGL (Rattus norvegicus, UniProt Q8R431).
T1 construct: one g rat brain was homogenized using a Polytron homogenizer; from tissue; host or cells: rat brain homogenate
T1 sequence (Q8R431 1-303): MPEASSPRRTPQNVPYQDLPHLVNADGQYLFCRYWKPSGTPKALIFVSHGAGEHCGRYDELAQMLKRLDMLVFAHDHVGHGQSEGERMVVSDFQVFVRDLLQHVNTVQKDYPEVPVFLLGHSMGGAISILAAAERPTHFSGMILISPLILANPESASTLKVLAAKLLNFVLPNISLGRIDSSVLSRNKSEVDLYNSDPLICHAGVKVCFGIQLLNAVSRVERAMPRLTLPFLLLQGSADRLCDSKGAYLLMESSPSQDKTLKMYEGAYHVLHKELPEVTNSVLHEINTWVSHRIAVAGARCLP
Nature of the experiment: 2-AG Accumulation Assay in rat brain homogenate. In kind it is biochemical. As to conditions: percent of vehicle; for activity at 1 µM: compound @1 µM, read-out: Rat Brain 2AG % VehCntrl (%) @1 µM; for activity at 10 µM: compound @10 µM, read-out: Rat Brain 2AG % VehCntrl (%) @10 µM.

Experiment [1] addresses T2, wild type MGL (wt-MGLL 6H-11-313) (Homo sapiens, UniProt Q99685).
T2 construct: purified wild type MGL (wt-MGLL 6H-11-313); 6H (hexahistidine) (N)
T2 sequence (Q99685 1-303): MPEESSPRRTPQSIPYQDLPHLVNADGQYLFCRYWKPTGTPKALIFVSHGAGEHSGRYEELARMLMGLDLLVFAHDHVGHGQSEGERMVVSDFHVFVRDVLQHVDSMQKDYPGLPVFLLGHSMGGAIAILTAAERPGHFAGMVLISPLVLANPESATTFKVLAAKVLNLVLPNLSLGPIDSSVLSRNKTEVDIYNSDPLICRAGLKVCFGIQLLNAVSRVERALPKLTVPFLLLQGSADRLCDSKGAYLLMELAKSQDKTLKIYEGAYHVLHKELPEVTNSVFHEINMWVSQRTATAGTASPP
Nature of the experiment: MGL Enzyme Activity Assay, purified wild type MGL, 4MU-B substrate. As to conditions: wild type MGL 5 nM, 4MU-B 10 μM, 37° C.; read-out: MGL wild type inh IC50. In kind it is biochemical. The protocol:
All rate-based assays were performed in black 384-well polypropylene PCR microplates (Abgene) in a total volume of 30 μL. […] Final compound concentrations ranged from 17 to 0.0003 μM.
The IC50 values for the following compounds were determined using Microsoft Office Excel from a fit of the equation to the concentration-response plot of the fractional activity as a function of inhibitor concentration.

For another experiment, the target named is T3, mutant MGL (Homo sapiens, UniProt Q99685, L169S/L176S).
T3 construct: purified mutant MGL (mut-MGLL 11-313 L179S L186S)
T3 sequence (Q99685 1-303 L169S/L176S): T2 sequence (Q99685 1-303) with L169S, L176S
The experiment is described as follows: MGL ThermoFluor Assay - Mutant. In kind it is binding. As to conditions: 0.07 mg/ml mutant MGL, 100 μM ANS, pH 7.0. The method, boiled down: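 Thermal-shift binding with 0.07 mg/ml L169S/L176S mutant MGL, 100 μM 1,8-ANS, 200 mM NaCl, 0.001% Tween-20, 50 mM PIPES pH 7.0, heated 40–90 °C at 1 °C/min.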
A general note: In DSF a fluorescence change marks the thermal transition of the protein.

For experiment [2], the target named is T4, mutant MGL (mut-MGLL 11-313 L179S L186S) (Homo sapiens, UniProt Q99685, L169S/L176S).
T4 construct: purified mutant MGL (mut-MGLL 11-313 L179S L186S)
T4 sequence (Q99685 1-303 L169S/L176S): T2 sequence (Q99685 1-303) with L169S, L176S
The experiment is described as follows: MGL Enzyme Activity Assay, purified mutant MGL, 4MU-B substrate. In kind it is biochemical. As to conditions: mutant MGL 5 nM, 4MU-B 10 μM, 37° C.; read-out: MGL mutant inh IC50. The method in brief:
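Purified mutant MGL (5 nM final) with 10 μM 4MU-B in 20 mM PIPES pH 7.0, 150 mM NaCl, 0.001% Tween 20; compounds 17 to 0.0003 μM final. Fluorescence (ex 335/em 440 nm) followed 5 min at 37 °C; IC50 from fit of fractional activity versus inhibitor concentration.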

Our source for the activity, IC50 and Kd values is US8759333B2, “Di-azetidinyl diamide as monoacylglycerol lipase inhibitors” (Janssen Pharmaceutica, NV, priority 2010, dated 2014).

Substitutions are numbered along the chain they refer to. Where only a bound is given, the exact number is not on record here.

Broadly, the IC50 is the concentration that gives 50% inhibition. As usually defined, the Kd is the free concentration of one partner at which half of the binding sites on the other are occupied at equilibrium, for simple one-to-one binding. Read a low Kd as tighter binding.

As to `O=C(NC1CN(C2CN(C(=O)c3ccc4c(ccn4-c4ccc(F)cc4F)c3)C2)C1)c1nccs1` [Cpd 55, N-(1′-{[1-(2,4-Difluorophenyl)-1H-indol-5-yl]carbonyl}-1,3′-biazetidin-3-yl)-1,3-thiazole-2-carboxamide], the activity at 1 µM at MGL was 353%. Further, in experiment [1], the IC50 was determined as 5 nM.
With `Cc1cc(-c2cccc(C(F)(F)F)c2)ccc1C(=O)N1CC(N2CC(NC(=O)c3nccs3)C2)C1` [Cpd 58, N-(1′-{[3-Methyl-3′-(trifluoromethyl)biphenyl-4-yl]carbonyl}-1,3′-biazetidin-3-yl)-1,3-thiazole-2-carboxamide], on mutant MGL, the Kd turned out to be 66.6 nM. Moreover, on MGL, the activity at 1 µM was 157%. Further, in experiment [1], the IC50 stood at 8 nM.
As for `O=C(NC1CN(C2CN(C(=O)c3ccc(-c4ccc(C(F)(F)F)cc4)cc3F)C2)C1)c1nccs1` [Cpd 59, N-(1′-{[3-Fluoro-4′-(trifluoromethyl)biphenyl-4-yl]carbonyl}-1,3′-biazetidin-3-yl)-1,3-thiazole-2-carboxamide], the activity at 1 µM at MGL worked out at 265%. Further, the IC50 in experiment [1] turned out to be 10 nM.
Regarding `O=C(NC1CN(C2CN(C(=O)c3ccc(Cc4ccccc4)cc3)C2)C1)c1nccs1` [Cpd 10, N-{1′-[(4-Benzylphenyl)carbonyl]-1,3′-biazetidin-3-yl}-1,3-thiazole-2-carboxamide], at MGL, the activity at 10 µM was found to be 659%. The values for the IC50 in experiment [1] and in experiment [2] were 70 nM and 15 nM, respectively.
With `Cc1c(C(=O)N2CC(N3CC(NC(=O)c4nccs4)C3)C2)sc2cc(-c3ccccc3)ccc12` [Cpd 66, N-{1′-[(3-Methyl-6-phenyl-1-benzothiophen-2-yl)carbonyl]-1,3′-biazetidin-3-yl}-1,3-thiazole-2-carboxamide], the activity at 1 µM at MGL is 399%. Besides, the IC50 in experiment [1] is less than 5 nM.
Regarding `O=C(NC1CN(C2CN(C(=O)c3ccc4c(ccn4-c4ccc(F)c(F)c4)c3)C2)C1)c1cscn1` [Cpd 54, N-(1′-{[1-(3,4-Difluorophenyl)-1H-indol-5-yl]carbonyl}-1,3′-biazetidin-3-yl)-1,3-thiazole-4-carboxamide], the activity at 1 µM at MGL was determined as 315%. Further, in experiment [1], the IC50 came out at 5 nM.
Take `O=C(NC1CN(C2CN(C(=O)c3ccc(Cc4ccc(C(F)(F)F)cc4)cc3)C2)C1)c1nccs1` [Cpd 16, N-[1′-({4-[4-(Trifluoromethyl)benzyl]phenyl}carbonyl)-1,3′-biazetidin-3-yl]-1,3-thiazole-2-carboxamide]: the activity at 10 µM at MGL stood at 123%. The IC50 is less than 5 nM in experiment [1] and 32 nM in experiment [2].
On mutant MGL, `Cc1cc(-c2ccc(C(F)(F)F)cc2)ccc1C(=O)N1CC(N2CC(N3Cc4scnc4C3=O)C2)C1` [Cpd 105, 5-(1′-{[3-Methyl-4′-(trifluoromethyl)biphenyl-4-yl]carbonyl}-1,3′-biazetidin-3-yl)-5,6-dihydro-4H-pyrrolo[3,4-d][1,3]thiazol-4-one] yielded a Kd of 3640 nM. Moreover, the IC50 in experiment [1] is 887 nM.
Turning to `O=C(NC1CN(C2CN(C(=O)c3ccc4c(ccn4-c4ccc(F)cc4F)c3)C2)C1)c1cscn1` [Cpd 60, N-(1′-{[1-(2,4-Difluorophenyl)-1H-indol-5-yl]carbonyl}-1,3′-biazetidin-3-yl)-1,3-thiazole-4-carboxamide], the activity at 1 µM on MGL turned out to be 273%. Moreover, the IC50 in experiment [1] stood at 11 nM.
Consider `Cc1c(C(=O)N2CC(N3CC(NC(=O)c4nccs4)C3)C2)sc2cc(Br)ccc12` [Cpd 65, N-{1′-[(6-Bromo-3-methyl-1-benzothiophen-2-yl)carbonyl]-1,3′-biazetidin-3-yl}-1,3-thiazole-2-carboxamide], for which the activity at 1 µM at MGL worked out at 324%. The IC50 in experiment [1] is less than 5 nM.
In the case of `Cc1cn(-c2ccc(F)cc2)c2ccc(C(=O)N3CC(N4CC(NC(=O)c5nccs5)C4)C3)cc12` [Cpd 62, N-(1′-{[1-(4-Fluorophenyl)-3-methyl-1H-indol-5-yl]carbonyl}-1,3′-biazetidin-3-yl)-1,3-thiazole-2-carboxamide], the activity at 1 µM on MGL is 334%. Besides, in experiment [1], the IC50 was found to be 15 nM.
The molecule `O=C(NC1CN(C2CN(C(=O)c3ccc(-c4cccc(C(F)(F)F)c4)cc3F)C2)C1)c1nccs1` [Cpd 64, N-(1′-{[3-Fluoro-3′-(trifluoromethyl)biphenyl-4-yl]carbonyl}-1,3′-biazetidin-3-yl)-1,3-thiazole-2-carboxamide] came in with a Kd at mutant MGL of 20 nM. In addition, the activity at 1 µM on MGL is 253%. Further, the IC50 in experiment [1] is less than 5 nM.
In the case of `O=C(c1ccc2c(ccn2-c2ccc(C(F)(F)F)cc2)c1)N1CC(N2CC(N3Cc4scnc4C3=O)C2)C1` [Cpd 106, 5-[1′-({1-[4-(Trifluoromethyl)phenyl]-1H-indol-5-yl}carbonyl)-1,3′-biazetidin-3-yl]-5,6-dihydro-4H-pyrrolo[3,4-d][1,3]thiazol-4-one], the activity at 1 µM at MGL amounted to 414%. Besides, in experiment [1], the IC50 is less than 5 nM.
For `Cc1cc(-c2ccc(C(F)(F)F)cc2)ccc1C(=O)N1CC(N2CC(NC(=O)c3nccs3)C2)C1` [Cpd 63, N-(1′-{[3-Methyl-4′-(trifluoromethyl)biphenyl-4-yl]carbonyl}-1,3′-biazetidin-3-yl)-1,3-thiazole-2-carboxamide], the activity at 1 µM at MGL is 185%. The IC50 in experiment [1] was found to be 29 nM.
At mutant MGL, `Cc1cc(-c2cccc(C(F)(F)F)c2)ccc1C(=O)N1CC(N2CC(N3Cc4scnc4C3=O)C2)C1` [Cpd 104, 5-(1′-{[3-Methyl-3′-(trifluoromethyl)biphenyl-4-yl]carbonyl}-1,3′-biazetidin-3-yl)-5,6-dihydro-4H-pyrrolo[3,4-d][1,3]thiazol-4-one] gave a Kd of 215 nM. Moreover, the IC50 in experiment [1] stood at 66 nM.
Regarding `O=C(NC1CN(C2CN(C(=O)c3ccc4c(ccn4-c4ccc(F)c(F)c4)c3)C2)C1)c1nccs1` [Cpd 57, N-(1′-{[1-(3,4-Difluorophenyl)-1H-indol-5-yl]carbonyl}-1,3′-biazetidin-3-yl)-1,3-thiazole-2-carboxamide], the activity at 1 µM at MGL amounted to 424%. For the same molecule, the IC50 in experiment [1] worked out at 7 nM.
Turning to `O=C(c1ccc2c(-c3ccccc3)cccc2c1)N1CC(N2CC(N3Cc4ccccc4C3=O)C2)C1` [Cpd 97, 2-{1′-[(5-Phenylnaphthalen-2-yl)carbonyl]-1,3′-biazetidin-3-yl}-2,3-dihydro-1H-isoindol-1-one], on MGL, the activity at 10 µM amounted to 518%. In addition, the IC50 in experiment [1] and in experiment [2] was less than 5 nM each time.
With `O=C(c1cc2ccc(-c3ccccc3)cc2s1)N1CC(N2CC(N3Cc4ccccc4C3=O)C2)C1` [Cpd 98, 2-{1′-[(6-Phenyl-1-benzothiophen-2-yl)carbonyl]-1,3′-biazetidin-3-yl}-2,3-dihydro-1H-isoindol-1-one], the activity at 10 µM on MGL came to 613%. Besides, the IC50 in experiment [1] and in experiment [2] was less than 5 nM each time.
At mutant MGL, `CN(C(=O)c1cscn1)C1CN(C2CN(C(=O)c3cc4ccc(C(F)(F)F)cc4s3)C2)C1` [Cpd 48, N-Methyl-N-(1′-{[6-(trifluoromethyl)-1-benzothiophen-2-yl]carbonyl}-1,3′-biazetidin-3-yl)-1,3-thiazole-4-carboxamide] registered a Kd greater than 31000 nM. Moreover, the IC50 in experiment [1] was 12900 nM; in experiment [2], 8120 nM.
`O=C(c1ccc2cc(-c3ccccc3)ccc2c1)N1CC(N2CC(N3Cc4ccccc4C3=O)C2)C1` [Cpd 69, 2-{1′-[(6-Phenylnaphthalen-2-yl)carbonyl]-1,3′-biazetidin-3-yl}-2,3-dihydro-1H-isoindol-1-one]: on MGL, the activity at 10 µM was found to be 600%. For the same molecule, the values for the concentration for half-maximal inhibition (IC50) in experiment [1] and in experiment [2] were less than 5 nM and 8 nM, respectively.
